Data reported in patent US8008294B2 (AstraZeneca AB, priority 2006, dated 2011).
Where a name gives a salt, the structure may show the parent alone.

Key:
Type in all cases: physicochemical
[1] = Hygroscopicity by Dynamic Vapour Sorption Analysis (DVS); settings: 25° C., citrate salt
Protocol: Dynamic Vapour Sorption Analysis (DVS)
The studies were undertaken using Dynamic Vapour Sorption Appararatus (DVS, Surface Measurement Systems, London UK). The apparatus consists of Cahn micobalance housed inside a temperature-controled cabinet. All experiments were performed at 25° C. The DVS was used to characterize the moisture uptake (w/w %) at different relative humidities (RH). Samples (5-10 mg) were weighed directly into the DSV sample cup and exposed to different relative humidities.

[2] = Photo stability of bulk substance (Suntest CPS+ cabinet)
Protocol: The exposure was 250 Wh/m^2 and 1.2 million lux hours over 29 hours.

[3] = Solution stability (isotonic solution, HPLC analysis); settings: 0.1 mg/ml isotonic solution, ascorbic acid 0.5% (w/v), pH 2 and 4, stored four weeks at 4 to 8° C.; citrate salt
[4] = 29 hours control sample (stored in the dark)
[5] = exposure time 29 hours, 250 Wh/m^2 and 1.2 million lux hours

Row | SMILES | moisture uptake ([1]; 40% relative humidity) [w/w %] | moisture uptake ([1]; 60% relative humidity) [w/w %] | moisture uptake ([1]; 80% relative humidity) [w/w %] | photo stability of bulk substance ([2]; 29 hours control sample (stored in the dark), citrate salt) | photo stability of bulk substance ([2]; exposure time 0 hours, citrate salt) | photo stability of bulk substance ([2]; exposure time 29 hours, 250 Wh/m^2 and 1.2 million lux hours, citrate salt) | degradation in solution [3] | photo stability of bulk substance [2, 4] | photo stability of bulk substance ([2]; exposure time 0 hours) | photo stability of bulk substance [2, 5]
1 | N#Cc1ccc2[nH]c(O)c(-c3ccc(CN4CCOCC4)cn3)c2c1 [Citrate, 2-Hydroxy-3-[5-(morpholin-4-ylmethyl)pyridin-2-yl]1H-indole-5-carbonitrile citrate salt] | 7.1 | 7.6 | 8.0 | 99.1 | 99.0 | 98.1 | no degradation products |  |  | 
2 | N#Cc1ccc2[nH]c(O)c(-c3ccc(CN4CCOCC4)cn3)c2c1 [HCl] |  |  |  |  |  |  |  | 97.7 | 97.5 | 89.0
3 | N#Cc1ccc2[nH]c(O)c(-c3ccc(CN4CCOCC4)cn3)c2c1 [Free base, 2-Hydroxy-3-[5-(morpholin-4-ylmethyl)pyridin-2-yl]1H-indole-5-carbonitrile] |  |  |  |  |  |  |  | 96.1 | 96.6 | 83.8
